In ChEMBL document CHEMBL1221217 (Nat Chem Biol, 2008) one finds EC50 and Activity data, which are given here for one molecule.

The source made the active and inactive calls. No cut-off for these calls is given here.

By EC50 is commonly meant the concentration needed to bring the measured effect to its halfway point.

The nature of assay [1]: Induction of dissociation of KV1.1 T1 domain/rat Kvbeta2 complex by solid phase binding assay.
The target in assay [2] is Voltage-gated potassium channel subunit beta-2 (Rattus norvegicus) (UniProt P62483). The experiment in a line: Binding affinity to Kvbeta2 assessed as reduction of fluorescence by NADPH fluorescence spectrum based assay. Further details: scale not given: the % may be the effect or the level left.
Sequence of Voltage-gated potassium channel subunit beta-2 (Rattus norvegicus) (P62483 whole entry, looked up): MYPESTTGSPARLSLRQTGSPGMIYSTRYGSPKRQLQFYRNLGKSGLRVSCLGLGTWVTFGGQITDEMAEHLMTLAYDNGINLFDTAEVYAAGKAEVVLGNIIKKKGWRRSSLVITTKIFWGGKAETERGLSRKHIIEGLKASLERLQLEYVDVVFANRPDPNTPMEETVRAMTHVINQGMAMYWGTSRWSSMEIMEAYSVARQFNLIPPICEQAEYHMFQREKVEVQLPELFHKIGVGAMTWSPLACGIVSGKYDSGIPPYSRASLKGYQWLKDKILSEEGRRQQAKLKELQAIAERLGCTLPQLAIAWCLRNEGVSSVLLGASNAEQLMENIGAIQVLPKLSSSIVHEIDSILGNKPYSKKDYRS
In assay [3] the target is Potassium voltage-gated channel subfamily A member 1 (Rattus norvegicus) (UniProt P10499). The experiment in a line: Activation of KV1.1 expressed in Xenopus laevis oocytes coexpressing Kvbeta1 assessed as increase in channel current at 500 uM by electrophysiology method. The note with it: Oocyte.
Sequence of Potassium voltage-gated channel subfamily A member 1 (Rattus norvegicus) (P10499 whole entry, looked up): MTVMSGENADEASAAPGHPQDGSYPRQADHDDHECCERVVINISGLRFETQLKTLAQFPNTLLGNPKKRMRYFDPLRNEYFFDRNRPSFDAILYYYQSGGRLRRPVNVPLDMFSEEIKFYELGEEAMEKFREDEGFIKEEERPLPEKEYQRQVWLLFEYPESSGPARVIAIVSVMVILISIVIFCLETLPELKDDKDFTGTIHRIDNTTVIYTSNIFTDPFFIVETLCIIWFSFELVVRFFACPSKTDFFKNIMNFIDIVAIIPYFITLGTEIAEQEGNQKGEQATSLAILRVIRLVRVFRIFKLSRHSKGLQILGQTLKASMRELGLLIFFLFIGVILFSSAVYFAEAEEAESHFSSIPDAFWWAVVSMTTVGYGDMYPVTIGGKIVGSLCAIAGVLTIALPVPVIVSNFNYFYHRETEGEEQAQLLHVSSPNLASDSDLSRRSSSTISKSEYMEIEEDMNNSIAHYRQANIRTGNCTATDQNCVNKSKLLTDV
The target is the same in assay [4]. As to the kind of experiment: Activation of KV1.1 expressed in Xenopus laevis oocytes assessed as increase in steady state current normalized to initial inactivating current by electrophysiology method. The following applies: Oocyte.
Assay [5] shares this target. As to the kind of experiment: Activation of KV1.1 expressed in Xenopus laevis oocytes coexpressing Kvbeta1 assessed as increase in steady state current normalized to initial inactivating current by electrophysiology method.
A short description of assay [6]: Induction of dissociation of KV1.1 T1 domain/rat Kvbeta2 I211R mutant complex at 2 mM by solid phase binding assay.
Assay [7] deals with Potassium voltage-gated channel subfamily A member 1 (Rattus norvegicus) (UniProt P10499). As to the kind of experiment: Activation of KV1.1 expressed in Xenopus laevis oocytes coexpressing Kvbeta1 W155A mutant assessed as increase in steady state current normalized to initial inactivating current at 500 uM by electrophysiology method. The following applies: Oocyte.
Assay [8] has the same target. The experiment in a line: Activation of KV1.1 expressed in Xenopus laevis oocytes coexpressing Kvbeta1 assessed as increase in steady state current normalized to initial inactivating current at 500 uM by electrophysiology method. The note with it: Oocyte.

Take `C[C@]12CCC(=O)C=C1CC[C@@H]1[C@@H]2C(=O)C[C@@]2(C)[C@H]1CC[C@]2(O)C(=O)CO` [CORTISONE]: the EC50 came out at 68 µM in assay [1] and 46 µM in assay [5]. Besides, the Activity in assay [2] was 21%; in assay [4] it was 4.5%; in assay [7], 93%; in assay [8] it was 84%. In addition, the result in assay [3] was Active. The result in assay [6] was inactive.
